Assay results taken from ChEMBL document CHEMBL3612058, “Synthesis and biological evaluation of a new series of 2-amino-3-aroyl thiophene derivatives as agonist allosteric modulators of the A1 adenosine receptor. A position-dependent effect study” (Eur J Med Chem, 2015).

Tests used:
[1] = target: T1, Adenosine receptor A1 (Homo sapiens) (UniProt P30542); test: Binding affinity to human adenosine A1 receptor expressed in CHO cells assessed as fold Bmax shift of [3H]-CCPA at 10 uM after 90 mins by [3H]-CCPA binding assay relative to control; format: cell-based
T1 sequence (whole entry): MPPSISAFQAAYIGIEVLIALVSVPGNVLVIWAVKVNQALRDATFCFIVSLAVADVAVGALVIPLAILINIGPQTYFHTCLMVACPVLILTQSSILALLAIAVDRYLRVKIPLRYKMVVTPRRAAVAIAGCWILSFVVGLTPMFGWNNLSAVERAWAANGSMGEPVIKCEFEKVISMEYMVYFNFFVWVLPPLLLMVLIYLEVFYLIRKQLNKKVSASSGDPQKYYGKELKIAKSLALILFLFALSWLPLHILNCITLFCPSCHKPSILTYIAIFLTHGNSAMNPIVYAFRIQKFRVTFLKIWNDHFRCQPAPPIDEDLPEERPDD

[2] = target: T1, Adenosine receptor A1 (Homo sapiens); test: Positive allosteric enhancement of human cloned adenosine A1 receptor expressed in CHO cells assessed as inhibition of forskolin-induced cAMP accumulation at 10 uM using [3H]-cAMP by scintillation counting relative to control; format: functional, cell-based
[3] = Displacement of [3H]-ZM241385 from human adenosine A2 receptor expressed in CHO cells at 10 uM after 120 mins by scintillation counting; format: cell-based
[4] = target: T1, Adenosine receptor A1 (Homo sapiens); test: Binding affinity to human adenosine A1 receptor expressed in CHO cells assessed as fold Ki shift of CCPA at 10 uM after 90 mins by [3H]-CCPA displacement assay relative to control; format: cell-based
[5] = target: T1, Adenosine receptor A1 (Homo sapiens); test: Ratio of PD81723 to compound for positive allosteric enhancement of human cloned adenosine A1 receptor expressed in CHO cells assessed as inhibition of forskolin-induced cAMP accumulation at 10 uM using [3H]-cAMP by scintillation counting; format: functional, cell-based
[6] = target: T2, Adenosine receptor A3 (Homo sapiens) (UniProt P0DMS8); test: Displacement of [3H]-MRE-3008-F20 from human adenosine A3 receptor expressed in CHO cells at 10 uM after 120 mins by scintillation counting; format: cell-based
T2 sequence (whole entry): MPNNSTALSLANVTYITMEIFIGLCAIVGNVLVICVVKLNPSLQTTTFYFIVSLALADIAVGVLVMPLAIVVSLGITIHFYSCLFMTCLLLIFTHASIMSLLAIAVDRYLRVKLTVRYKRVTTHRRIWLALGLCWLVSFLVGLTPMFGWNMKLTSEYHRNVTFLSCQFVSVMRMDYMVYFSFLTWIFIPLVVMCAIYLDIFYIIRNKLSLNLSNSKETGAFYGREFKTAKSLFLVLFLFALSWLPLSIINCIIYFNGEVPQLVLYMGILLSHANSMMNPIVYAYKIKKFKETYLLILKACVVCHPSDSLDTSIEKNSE

[7] = target: T1, Adenosine receptor A1 (Homo sapiens); test: Displacement of [3H]DPCPX from human adenosine A1 receptor expressed in CHO cells at 10 uM after 120 mins by scintillation counting; format: cell-based
[8] = target: T1, Adenosine receptor A1 (Homo sapiens); test: Positive allosteric enhancement of human cloned adenosine A1 receptor expressed in CHO cells assessed as inhibition of forskolin-induced cAMP accumulation at 100 nM using [3H]-cAMP by scintillation counting relative to control in presence of 1 pM of CCPA; format: functional, cell-based

| SMILES | fold change (FC) [1] | inhibition [2] [%] | inhibition [3] [%] | fold change (FC) [4] | Ratio [5] | inhibition [6] [%] | inhibition [7] [%] | inhibition [8] [%] |
| --- | --- | --- | --- | --- | --- | --- | --- | --- |
| Nc1sc(-c2ccc(Cl)cc2)c(Cc2ccccc2)c1C(=O)c1ccc(Cl)cc1 | 7.2 | 69 | < 10 | 8.4 | 3 | < 10 | < 10 | 67 |
| COc1ccc(-c2sc(N)c(C(=O)c3ccc(Cl)cc3)c2Cc2ccc(SC)cc2)cc1 | 6.5 | 62 | < 10 | 6.1 | 3 | < 10 | < 10 | 62 |
| CC(C)Oc1ccc(Cc2c(-c3ccccc3)sc(N)c2C(=O)c2ccc(Cl)cc2)cc1 | 7.6 | 65 | < 10 | 5.8 | 3 | < 10 | < 10 | 67 |
| CCOc1ccc(Cc2sc(N)c(C(=O)c3ccc(Cl)cc3)c2-c2ccccc2)cc1 | 1.5 | 22 | < 10 | 1.5 | – | < 10 | < 10 | 21 |
| COc1cccc(Cc2sc(N)c(C(=O)c3ccc(Cl)cc3)c2-c2ccccc2)c1 | 2.6 | 32 | < 10 | 1.9 | – | < 10 | < 10 | 31 |
| Nc1sc(Cc2ccc(C(F)(F)F)cc2)c(-c2ccccc2)c1C(=O)c1ccc(Cl)cc1 | 1.8 | 25 | < 10 | 1.6 | – | < 10 | < 10 | 24 |
| Nc1sc(Cc2ccccc2)c(-c2ccccc2)c1C(=O)c1ccc(Cl)cc1 | 2.6 | 34 | < 10 | 1.9 | – | < 10 | < 10 | 35 |
| CC(C)(C)Cc1c(-c2ccc(Cl)cc2)sc(N)c1C(=O)c1ccc(Cl)cc1 | 5.8 | – | – | 4 | – | – | – | – |
| COc1ccc(Cc2sc(N)c(C(=O)c3ccc(Cl)cc3)c2-c2ccccc2)cc1C | 2.7 | 31 | < 10 | 2.4 | – | < 10 | < 10 | 30 |
| CC(C)Oc1ccc(Cc2sc(N)c(C(=O)c3ccc(Cl)cc3)c2-c2ccccc2)cc1 | 1.8 | 26 | < 10 | 2 | – | < 10 | < 10 | 26 |
| Nc1sc(-c2ccc(Cl)cc2)c(CN2CCN(c3ccc(Cl)cc3)CC2)c1C(=O)c1ccc(Cl)cc1 | 11.4 | – | – | 8.7 | – | – | – | – |
| Nc1sc(-c2ccccc2)c(Cc2cccc3ccccc23)c1C(=O)c1ccc(Cl)cc1 | 6.1 | 57 | < 10 | 4.3 | – | < 10 | < 10 | 58 |
| Nc1sc(Cc2cccc3ccccc23)c(-c2ccccc2)c1C(=O)c1ccc(Cl)cc1 | 1.5 | 21 | < 10 | 1.4 | – | < 10 | < 10 | 22 |
| COc1ccc(Cc2sc(N)c(C(=O)c3ccc(Cl)cc3)c2-c2ccccc2)cc1 | 2.8 | 35 | < 10 | 2 | – | < 10 | < 10 | 36 |
| Nc1sc(Cc2ccc(OC(F)(F)F)cc2)c(-c2ccccc2)c1C(=O)c1ccc(Cl)cc1 | 1.8 | 24 | < 10 | 1.8 | – | < 10 | < 10 | 25 |
